Literature values in US7968723B2, “Compounds, their preparation and use” (High Point Pharmaceuticals, LLC, priority 2004, dated 2011).

Assays:
[1] = system: high fat diet induced Insulin resistant mice and diabetic ob/ob; settings: PNAS 2003, 100, 15924-15929
[2] = system: C2C12 muscle cells; settings: in vitro treatment of C2C12 muscle cells; BioChem. Biophys. Acta 2003, 1633, 43-50; Mol. Endocrin. 2003, 17, 2477-2493

SMILES: Cc1cc(SCc2sc(-c3ccc(C(F)(F)F)cc3)nc2C)ccc1OCC(=O)O [GW501516]
- insulin sensitivity [1]: improved insulin sensitivity
- plasma glucose and insulin [1]: lowering of plasma glucose and insulin
- regulation of genes (TG hydrolysis, FFA oxidation, lipid utilization, energy expenditure, lipid efflux) [2]: regulation of genes involved with TG hydrolysis and FFA oxidation
